Test results published in ChEMBL document CHEMBL1909046, “DrugMatrix in vitro pharmacology data”.
pIC50, pKi: −log10 of the molar value.

How the values were obtained:
[1] = molecular target: C-C chemokine receptor type 5 (Homo sapiens, UniProt P51681); type: cell membranes, Membrane; conditions: hek293; note: in other assays of this panel Not Active means under 50% inhibition at 10 µM
B2 bradykinin receptor = molecular target: T1, B2 bradykinin receptor (Homo sapiens, UniProt P30411); type: cell membranes, Membrane; conditions: chem-1; note: in other assays of this panel Not Active means under 50% inhibition at 10 µM
T1 sequence (P30411 whole entry): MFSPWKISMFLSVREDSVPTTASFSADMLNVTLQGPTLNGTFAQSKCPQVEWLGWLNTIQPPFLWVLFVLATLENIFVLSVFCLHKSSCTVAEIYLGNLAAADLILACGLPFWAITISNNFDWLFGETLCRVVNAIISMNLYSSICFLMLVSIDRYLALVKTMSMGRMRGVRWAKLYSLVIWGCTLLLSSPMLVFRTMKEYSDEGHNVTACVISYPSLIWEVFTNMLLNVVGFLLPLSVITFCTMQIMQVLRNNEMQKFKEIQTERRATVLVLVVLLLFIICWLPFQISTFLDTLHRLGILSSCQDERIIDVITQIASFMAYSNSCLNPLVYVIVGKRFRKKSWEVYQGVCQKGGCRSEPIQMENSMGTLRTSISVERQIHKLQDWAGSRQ

[2] = molecular target: T2, 3-hydroxy-3-methylglutaryl-coenzyme A reductase (Homo sapiens, UniProt P04035); parameters: species or system Escherichia coli;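 note: enzyme inhibition assay of HMG-CoA reductase using radiolabeled [14C]HMG-CoA as substrate; in other assays of this panel Not Active means under 50% inhibition at 10 µM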
T2 sequence (P04035 whole entry): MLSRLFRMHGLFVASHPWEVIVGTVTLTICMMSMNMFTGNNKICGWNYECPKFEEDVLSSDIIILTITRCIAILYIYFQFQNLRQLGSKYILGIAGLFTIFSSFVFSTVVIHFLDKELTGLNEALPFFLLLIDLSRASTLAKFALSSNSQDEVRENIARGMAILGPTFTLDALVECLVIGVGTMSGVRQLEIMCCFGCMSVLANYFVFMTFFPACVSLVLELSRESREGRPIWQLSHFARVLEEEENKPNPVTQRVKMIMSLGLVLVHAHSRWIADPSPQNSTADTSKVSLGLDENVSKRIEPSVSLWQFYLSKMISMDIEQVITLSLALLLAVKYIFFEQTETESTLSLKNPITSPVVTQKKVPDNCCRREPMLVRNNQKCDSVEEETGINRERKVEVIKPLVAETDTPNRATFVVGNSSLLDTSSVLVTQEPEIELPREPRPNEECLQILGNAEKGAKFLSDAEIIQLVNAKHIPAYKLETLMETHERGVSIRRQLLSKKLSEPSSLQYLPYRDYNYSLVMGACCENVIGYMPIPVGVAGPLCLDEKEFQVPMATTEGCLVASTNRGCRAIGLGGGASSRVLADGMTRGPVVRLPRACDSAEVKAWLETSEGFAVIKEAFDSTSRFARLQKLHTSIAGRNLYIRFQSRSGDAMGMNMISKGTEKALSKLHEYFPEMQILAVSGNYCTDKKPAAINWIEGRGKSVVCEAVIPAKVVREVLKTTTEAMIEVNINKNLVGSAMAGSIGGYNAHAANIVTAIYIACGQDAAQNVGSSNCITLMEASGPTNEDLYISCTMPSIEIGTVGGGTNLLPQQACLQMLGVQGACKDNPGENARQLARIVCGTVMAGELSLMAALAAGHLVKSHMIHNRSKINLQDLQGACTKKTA

[3] = molecular target: Beta-2 adrenergic receptor (Homo sapiens, UniProt P07550); test: DRUGMATRIX: Adrenergic beta2 radioligand binding (ligand: [3H] CGP-12177); type: cell membranes, CHO, Membrane; conditions: cho; Not Active = under 50% inhibition at 10 µM
[4] = molecular target: T3, Alpha-2A adrenergic receptor (Homo sapiens, UniProt P08913); type: cell membranes, Sf9, Membrane; conditions: for IC50: sf9; for all read-outs here: in other assays of this panel Not Active means under 50% inhibition at 10 µM
T3 sequence (P08913 whole entry): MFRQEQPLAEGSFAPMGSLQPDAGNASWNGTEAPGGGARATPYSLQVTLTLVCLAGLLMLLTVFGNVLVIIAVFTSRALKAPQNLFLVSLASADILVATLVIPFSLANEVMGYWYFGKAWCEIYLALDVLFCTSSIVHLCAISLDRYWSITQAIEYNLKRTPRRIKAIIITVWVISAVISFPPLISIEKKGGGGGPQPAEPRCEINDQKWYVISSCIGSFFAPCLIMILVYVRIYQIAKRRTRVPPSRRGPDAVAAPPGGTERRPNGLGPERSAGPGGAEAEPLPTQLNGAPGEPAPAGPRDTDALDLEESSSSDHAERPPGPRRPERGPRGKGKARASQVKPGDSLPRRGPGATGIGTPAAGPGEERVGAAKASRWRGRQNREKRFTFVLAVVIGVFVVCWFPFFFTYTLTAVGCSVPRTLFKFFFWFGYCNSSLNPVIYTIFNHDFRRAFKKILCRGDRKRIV

D(1A) dopamine receptor = D(1A) dopamine receptor (Homo sapiens, UniProt P21728); test: DRUGMATRIX: Dopamine D1 radioligand binding (ligand: [3H] SCH-23390); type: cell membranes, CHO, Membrane; conditions: cho; Not Active = under 50% inhibition at 10 µM
[5] = molecular target: Protein kinase C alpha type (Homo sapiens, UniProt P17252); type: cell-based; conditions: sf9
Carbonic anhydrase 2 = Carbonic anhydrase 2 (Homo sapiens, UniProt P00918); test: DRUGMATRIX: Carbonic Anhydrase II enzyme inhibition (substrate: 4-Nitrophenyl acetate (4-NPA)); type: tissue-based; conditions: erythrocyte; Not Active = under 50% inhibition at 10 µM
[6] = DRUGMATRIX: ATPase, Na+/K+ enzyme inhibition (substrate: ATP); type: tissue-based, Sus scrofa, Heart; conditions: Not Active = under 50% inhibition at 10 µM

Chain of D(1A) dopamine receptor (P21728 whole entry): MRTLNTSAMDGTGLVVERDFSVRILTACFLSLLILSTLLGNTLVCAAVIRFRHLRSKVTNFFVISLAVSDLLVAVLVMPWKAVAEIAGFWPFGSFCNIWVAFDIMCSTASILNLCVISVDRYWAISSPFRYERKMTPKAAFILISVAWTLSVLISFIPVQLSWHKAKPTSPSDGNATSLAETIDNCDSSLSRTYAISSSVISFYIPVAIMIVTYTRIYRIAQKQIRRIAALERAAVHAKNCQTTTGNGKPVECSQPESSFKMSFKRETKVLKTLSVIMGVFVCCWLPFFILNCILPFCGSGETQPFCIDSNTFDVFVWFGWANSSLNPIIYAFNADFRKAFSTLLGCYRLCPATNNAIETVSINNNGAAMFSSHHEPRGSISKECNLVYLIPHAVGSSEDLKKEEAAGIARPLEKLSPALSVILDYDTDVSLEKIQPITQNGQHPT
Chain of Beta-2 adrenergic receptor (P07550 whole entry): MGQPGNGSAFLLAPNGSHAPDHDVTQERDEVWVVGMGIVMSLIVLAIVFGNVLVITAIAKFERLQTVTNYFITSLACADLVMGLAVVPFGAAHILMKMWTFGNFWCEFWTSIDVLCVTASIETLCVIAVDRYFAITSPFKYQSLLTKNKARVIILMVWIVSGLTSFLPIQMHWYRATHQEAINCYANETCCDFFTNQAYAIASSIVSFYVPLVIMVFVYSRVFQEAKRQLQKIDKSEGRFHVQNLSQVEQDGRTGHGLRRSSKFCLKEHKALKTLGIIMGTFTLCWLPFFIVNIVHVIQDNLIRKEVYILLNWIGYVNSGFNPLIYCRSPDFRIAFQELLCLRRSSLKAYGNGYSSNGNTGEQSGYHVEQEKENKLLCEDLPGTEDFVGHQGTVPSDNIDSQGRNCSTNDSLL
Chain of C-C chemokine receptor type 5 (P51681 whole entry): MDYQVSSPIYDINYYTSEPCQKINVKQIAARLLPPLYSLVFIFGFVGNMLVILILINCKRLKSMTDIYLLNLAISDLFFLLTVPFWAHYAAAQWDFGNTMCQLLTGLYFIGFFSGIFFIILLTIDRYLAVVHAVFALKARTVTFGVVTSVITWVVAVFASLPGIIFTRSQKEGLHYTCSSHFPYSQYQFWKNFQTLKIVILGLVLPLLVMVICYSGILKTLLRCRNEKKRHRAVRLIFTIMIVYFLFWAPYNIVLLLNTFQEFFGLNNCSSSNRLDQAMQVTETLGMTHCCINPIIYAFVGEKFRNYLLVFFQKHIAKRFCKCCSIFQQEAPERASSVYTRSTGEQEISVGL

Row | SMILES | IC50 [1] | IC50 (B2 bradykinin receptor) | IC50 [2] | IC50 [3] | IC50 [4] | IC50 (D(1A) dopamine receptor) | IC50 [5] | IC50 (Carbonic anhydrase 2) | IC50 [6] | Ki [6] | pIC50 ([4]; read-out: IC50) | pKi ([4]; read-out: Ki)
1 | CC[C@@H](C(=O)[C@@H](C)[C@@H](O)[C@H](C)[C@@H]1O[C@@H]([C@@H](CC)C(=O)O)CC[C@@H]1C)[C@H]1O[C@]2(C=C[C@@H](O)[C@]3(CC[C@@](C)([C@H]4CC[C@](O)(CC)[C@H](C)O4)O3)O2)[C@H](C)C[C@@H]1C [SALINOMYCIN] | Not Active | Not Active | Not Active | Not Active | Not Active | Not Active | Not Active | Not Active | Not Active | Not Active |  | 
2 | CC(C)Cc1ccc([C@@H](C)C(=O)O)cc1 [(R)-IBUPROPHEN] | Not Active | Not Active | Not Active | Not Active | Not Active | Not Active | Not Active | Not Active | Not Active | Not Active |  | 
3 | NC(=O)N1C(=O)/C(=C(\O)c2cccs2)c2cc(Cl)ccc21 [TENIDAP] | Not Active | Not Active | Not Active | Not Active | Not Active | Not Active | Not Active | Not Active | Not Active | Not Active |  | 
4 | O=C1C(CC[S+]([O-])c2ccccc2)C(=O)N(c2ccccc2)N1c1ccccc1 (stereo unspecified) [SULFINPYRAZONE] | Not Active | Not Active | Not Active | Not Active | Not Active | Not Active | Not Active | Not Active | Not Active | Not Active |  | 
5 | CO[C@H]1/C=C/O[C@@]2(C)Oc3c(C)c(O)c4c(O)c(c(/C=N/N5CCN(C6CCCC6)CC5)c(O)c4c3C2=O)NC(=O)/C(C)=C\C=C\[C@H](C)[C@H](O)[C@@H](C)[C@@H](O)[C@@H](C)[C@H](OC(C)=O)[C@@H]1C [RIFAPENTINE] | Not Active | Not Active | Not Active | Not Active | Not Active | Not Active | Not Active | Not Active | Not Active | Not Active |  | 
6 | Cn1c(=O)c2nc[nH]c2n(C)c1=O.O [THEOPHYLLINE] | Not Active | Not Active | Not Active | Not Active | Not Active | Not Active | Not Active | Not Active | Not Active | Not Active |  | 
7 | CCCCOc1cc(CC2CNC(=O)N2)ccc1OC (stereo unspecified) [RO-201724] | Not Active | Not Active | Not Active | Not Active | Not Active | Not Active | Not Active | Not Active | Not Active | Not Active |  | 
8 | N#Cc1ccc(C(c2ccc(C#N)cc2)n2cncn2)cc1 [LETROZOLE] | Not Active | Not Active | Not Active | Not Active | Not Active | Not Active | Not Active | Not Active | Not Active | Not Active |  | 
9 | CN(C/C=C/C#CC(C)(C)C)Cc1cccc2ccccc12 [TERBINAFINE] | Not Active | Not Active | Not Active | Not Active |  | Not Active | Not Active | Not Active | Not Active | Not Active | 5.24 | 5.67
10 | O=C1Nc2ccc(Cl)cc2C(c2ccccc2Cl)=NC1O (stereo unspecified) [LORAZEPAM] | Not Active | Not Active | Not Active | Not Active | Not Active | Not Active | Not Active | Not Active | Not Active | Not Active |  | 
